Columns and labels:
Format in all cases: cell-based, human
Conditions in all cases: 48 h
[1] = system: G2 leukemic cell line; assay: Fixed propidium iodide staining, flow cytometry
[2] = system: W1 leukemic cell line; assay: Fixed propidium iodide staining, flow cytometry
[3] = system: B1 leukemic cell line; assay: Fixed propidium iodide staining, flow cytometry
[4] = system: G2 leukemic cell line; assay: TUNEL, flow cytometry
Experimental: (§1) Adherent cell lines were plated at 35×10^4 cells/60 cm^2 dish the day before exposure to compound. Suspension cells were seeded at 25×10^4 cells/mL in a 6 well dish (Falcon) the day of exposure to compound. Mononucleated, T-cell depleted normal bone marrow cells were seeded at 50×10^4 cells/mL in a 6 well dish the day of exposure to compound. Cells were exposed to solvent control or approximate MTT50 and MTT30 concentrations of the compound. After 48 h of exposure to the compound, cells were harvested and fixed with a final concentration of 4% formaldehyde. Fixed cells were stored at −20° C. in 70% ethanol for no more than 5 days. Approximately 10^5 cells were pelleted and labeled with 0.02 mM Biotin-dUTP and 12.5 U TdT enzyme in a 1× reaction buffer (200 mM potassium cacodylate, 25 mM Tris-HCl, 25 μg/mL bovine serum albumin, pH 6.6), 2.5 mM CoCl2 and 0.01 mM dTTP (Roche Molecular Biochemicals, Laval, QC, Canada) for 45 min at 37° C. Samples were washed and incubated in 200 μL of 1:1000 fluorescein isothiocyanate (FITC)-conjugated avidin (Sigma) in 4×SSC, 5% skim milk powder and 0.05% Tween-20 (Sigma). Following 1 h of mixing at room temperature, the samples were washed and resuspended in 500 μL of D-PBS containing 2.5 μg/mL DNase-free RNase (Boehringer Mannheim) and 10 μg/mL PI. Following a 30 min incubation at room temperature, cells were analyzed using a XL-MCL flow cytometer (Coulter Corporation, Miami, Fla.) and a FACScalibar cytometer (Becton Dickinson, San Jose, Calif.). Profiles shown are representative of one experiment.
as §1, with “? s” for “Cells”, “appr ? nate” for “approximate”, “of” for “of the”, “Pl.” for “PI.”

[5] = system: NB-4 leukemic cell line; assay: TUNEL, flow cytometry
Experimental: as §1
as §1, with “? s” for “Cells”, “appr ? nate” for “approximate”, “of” for “of the”, “Pl.” for “PI.”

[6] = system: B1 leukemic cell line; assay: TUNEL, flow cytometry
Experimental: as §1
as §1, with “? s” for “Cells”, “appr ? nate” for “approximate”, “of” for “of the”, “Pl.” for “PI.”

[7] = system: WI38 non-transformed diploid fibroblasts; assay: TUNEL, flow cytometry
Experimental: as §1
as §1, with “? s” for “Cells”, “appr ? nate” for “approximate”, “of” for “of the”, “Pl.” for “PI.”

[8] = system: KK leukemic cell line; assay: TUNEL, flow cytometry
Experimental: as §1
as §1, with “? s” for “Cells”, “appr ? nate” for “approximate”, “of” for “of the”, “Pl.” for “PI.”

SMILES | % pre-G1 (Fixed PI) ([1]; dose 50 uM) [%] | % pre-G1 (Fixed PI) ([1]; dose 150 uM) [%] | % pre-G1 (Fixed PI) ([2]; dose 50 uM) [%] | % pre-G1 (Fixed PI) ([2]; dose 150 uM) [%] | % pre-G1 (Fixed PI) ([3]; dose 150 uM) [%] | % TUNEL +ve ([4]; dose 50 uM) [%] | % TUNEL +ve ([4]; dose 100 uM) [%] | % TUNEL +ve ([5]; dose 50 uM) [%] | % TUNEL +ve ([5]; dose 100 uM) [%] | % TUNEL +ve ([6]; dose 50 uM) [%] | % TUNEL +ve ([6]; dose 100 uM) [%] | % TUNEL +ve ([7]; dose 50 uM) [%] | % TUNEL +ve ([7]; dose 100 uM) [%] | % TUNEL +ve ([8]; dose 50 uM) [%] | % pre-G1 (Fixed PI) ([1]; dose 20 uM) [%] | % pre-G1 (Fixed PI) ([1]; dose 40 uM) [%] | % pre-G1 (Fixed PI) ([2]; dose 20 uM) [%] | % pre-G1 (Fixed PI) ([2]; dose 40 uM) [%] | % pre-G1 (Fixed PI) ([3]; dose 20 uM) [%] | % pre-G1 (Fixed PI) ([3]; dose 40 uM) [%] | other results
CSCSSC [Compound N, 2,3,5-trithiahexane] | 16 | 29 | 22 | 33 | 35 | 18 | 19 | 17 | 19 | 49 | 44 | 0.7 | 2 |  |  |  |  |  |  |  | % G2 increase (Fixed PI) ([1]; dose 50 uM): +8%; % G2 increase (Fixed PI) ([1]; dose 150 uM): +8%; % G2 increase (Fixed PI) ([2]; dose 50 uM): +10%; % G2 increase (Fixed PI) ([3]; dose 50 uM): +2%; % G2 increase (Fixed PI) ([3]; dose 150 uM): −1%
CSSCC(=O)c1ccccc1 [Compound P, phenacyl methyl disulphide] | 6 | 63 | 14 | 55 | 80 | 17 | 53 | 24 | 0.2 | 39 | 67 | 0.70 | 1.7 | 47 |  |  |  |  |  |  | % pre-G1 (Fixed PI) ([3]; dose 50 uM): 52%; % TUNEL +ve ([8]; dose 100 uM): 78%
CSSc1ccc([N+](=O)[O-])cc1 [M, methyl p-nitrophenyl disulphide] |  |  |  |  |  |  |  |  |  |  |  |  |  |  | 10 | 43 | 9 | 28 | 70 | 76 | 
CCC(=O)OCSSc1ccccc1 [Compound Q, 1-phenyl-1,2-dithiapropyl propionate] |  |  |  |  |  | 58 |  | 16 |  | 78 |  | 0.2 |  | 61 | 31 | 55 | 20 | 49 | 5 | 20 | % G2 increase (Fixed PI) ([1]; dose 20 uM): −1%; % G2 increase (Fixed PI) ([1]; dose 40 uM): −3%; % G2 increase (Fixed PI) ([2]; dose 20 uM): +4%; % G2 increase (Fixed PI) ([2]; dose 40 uM): +12%; % G2 increase (Fixed PI) ([3]; dose 20 uM): 0%; % G2 increase (Fixed PI) ([3]; dose 40 uM): −3%; % TUNEL +ve ([4]; dose 25 uM): 23%; % TUNEL +ve ([6]; dose 25 uM): 32%; % TUNEL +ve ([7]; dose 25 uM): 4%; % TUNEL +ve ([8]; dose 25 uM): 43%

From patent publication US20030220524A1, “Sulfur containing compounds” (priority 2000, published 2003)
